No end group written: not given here.
Key:
[1] = tested on: BP1-151HSA conjugate (MUC1 24 amino acid peptide conjugated to HSA); assay: Anti-MUC1 antibody levels (serum ELISA) after immunization, BP1-151-HSA solid phase; assay type: in vivo, C57BL/6 mice; settings: for antibody levels / humoral immunity (in words): immunized mice, liposomal formulations containing lipid A adjuvant
Experimental: (§1) MUC1 based liposomal vaccines (“BLP25 liposomal vaccines”) at a dose of 100 μg (250 μl) was injected subcutaneously, two, three, or four times, at biweekly intervals, into right and left inguinal regions (125 μl per each site).

[2] = tested on: Blend C (natural human MUC1 mucin purified from ovarian cancer ascites); assay: Anti-MUC1 antibody levels (serum ELISA) after immunization, Blend C solid phase; assay type: in vivo; settings: Protocol 1346; C57Bl/6 mice immunized two times, subcutaneously; individual mouse
Experimental: as §1

[3] = tested on: BP1-151HSA conjugate (MUC1 24 amino acid peptide conjugated to HSA); assay: Anti-MUC1 IgG levels (serum ELISA) in MUC1 transgenic mice, BP1-151 HSA solid phase; assay type: in vivo, C57Bl/6 MUC1 transgenic mice; settings: Protocol 1347C, 4 immunizations, individual mouse
Excerpt: To further characterize the observed phenomenon, MUC I transgenic mice were immunized with MUC I based liposomal formulations containing mono- or dilipopeptides.

Blend C (natural human MUC1 mucin purified from ovarian cancer ascites), sequence (P15941 24-1255): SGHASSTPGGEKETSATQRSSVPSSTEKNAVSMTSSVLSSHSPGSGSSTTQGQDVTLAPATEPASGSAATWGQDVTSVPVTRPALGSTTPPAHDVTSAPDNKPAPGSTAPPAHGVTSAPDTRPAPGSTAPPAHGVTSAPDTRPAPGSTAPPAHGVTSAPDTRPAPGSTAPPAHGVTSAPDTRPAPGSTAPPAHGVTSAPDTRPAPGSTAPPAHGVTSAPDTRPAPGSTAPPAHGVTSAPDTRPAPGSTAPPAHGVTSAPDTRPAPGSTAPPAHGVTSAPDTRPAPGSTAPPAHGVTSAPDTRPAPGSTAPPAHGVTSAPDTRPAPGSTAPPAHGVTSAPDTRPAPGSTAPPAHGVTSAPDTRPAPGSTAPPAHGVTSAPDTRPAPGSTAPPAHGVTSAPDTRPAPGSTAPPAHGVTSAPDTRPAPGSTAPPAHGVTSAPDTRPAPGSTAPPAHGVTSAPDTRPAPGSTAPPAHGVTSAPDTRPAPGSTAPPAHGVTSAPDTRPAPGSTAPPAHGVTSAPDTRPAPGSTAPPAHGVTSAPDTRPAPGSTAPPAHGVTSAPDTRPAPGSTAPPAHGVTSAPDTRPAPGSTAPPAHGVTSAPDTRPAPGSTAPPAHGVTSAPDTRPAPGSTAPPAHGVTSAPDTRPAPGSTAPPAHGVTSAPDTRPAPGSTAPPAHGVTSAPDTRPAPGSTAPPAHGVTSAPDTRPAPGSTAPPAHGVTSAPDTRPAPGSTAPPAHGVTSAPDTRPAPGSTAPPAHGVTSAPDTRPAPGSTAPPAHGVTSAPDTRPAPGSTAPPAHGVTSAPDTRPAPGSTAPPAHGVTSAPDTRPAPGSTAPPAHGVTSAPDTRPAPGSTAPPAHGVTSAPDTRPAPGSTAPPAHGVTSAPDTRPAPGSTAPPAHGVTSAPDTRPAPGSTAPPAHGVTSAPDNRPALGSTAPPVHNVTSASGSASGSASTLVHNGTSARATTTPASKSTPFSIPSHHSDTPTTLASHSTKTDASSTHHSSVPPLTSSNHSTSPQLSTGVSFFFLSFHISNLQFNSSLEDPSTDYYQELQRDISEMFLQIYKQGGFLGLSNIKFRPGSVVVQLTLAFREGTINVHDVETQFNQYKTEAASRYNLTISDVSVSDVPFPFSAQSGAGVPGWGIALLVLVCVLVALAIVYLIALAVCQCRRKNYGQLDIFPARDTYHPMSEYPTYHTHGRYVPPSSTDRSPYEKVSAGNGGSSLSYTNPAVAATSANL

Row | Substance | Antibody Titer, IgG, BP1-151-HSA ([1]; Protocol 1346, C57Bl/6 mice immunized two times, subcutaneously, individual mouse) | antibody levels / humoral immunity (in words) [1] | Antibody Titer, IgG, Blend C [2] | Antibody Titer, IgG, BP1-151 HSA [3]
1 | GVTSAPDTRPAPGSTAS(myristyl)L [BP1-228] | only low titers | very low or no antibody levels | no antibodies were detected | very low titers of IgG
2 | GVTSAPDTRPAPGSTAS(myristyl)S(myristyl)L [BP1-217] | – | – | – | strong IgG antibody response
3 | TAPPAHGVTSAPDTRPAPGSTAPPK(palmitate)K(palmitate)G [BP1-132A] | – | induce humoral immunity | – | –

Source: patent US8552145B2, “Vaccine for modulating between T1 and T2 immune responses” (priority 2001, dated 2013)
